Measured values taken from patent publication US8569281B2, “Compounds and their administration for treating a neurodegenerative disease as well as a method for identifying a compound capable of inhibiting a kinase, such as LRRK” (Medical Research Council Technology, priority 2010, dated 2013).

Target: LRRK2 (Homo sapiens (Human), UniProt Q5S007)
Test: In Vitro LRRK2 Assay (LabChip 3000, fluorescently-labeled peptide substrate)
Type: biochemical
Details: ATP 130 μM, substrate 1 μM, 2 hours, ambient temperature; LRRK2 variant not given; read-out: Ki (μM), affinity values for LRRK2
Protocol: This assay was used to determine a compound's potency in inhibiting activity of LRRK2 by determining, Kiapp, IC50, or percent inhibition values. In a polypropylene plate, LRRK2, fluorescently-labeled peptide substrate, ATP and test compound were incubated together. Using a LabChip 3000 (Caliper Life Sciences), after the reaction the substrate was separated by capillary electrophoresis into two populations: phosphorylated and unphosphorylated. The relative amounts of each were quantitated by fluorescence intensity. LRRK2 Ki was determined according to the equation: Y=V0*(1−((x+Ki*(1+S/Km)+Et)/(2*Et)−(((x+Ki*(1+S/Km)+Et)^2−(4*Et*x))^0.5)/(2*Et))).
Ki values in Table 4 and elsewhere herein are shown in μM.
Assay conditions and materials used were as follows:
Compound Plate Preparation:
For serial dilutions, 34.6 μl DMSO was added to columns 3-24.
Total and Blank Preparation:
In Complete Reaction Buffer, substrate was diluted to 4 μM. Equal volumes of Complete Reaction Buffer and 4 μM substrate were combined to obtain the blank. Equal volumes of Complete Reaction Buffer and 4 μM substrate were combined and to the combined solution was added 2× final LRRK2 concentration.
To a 50 μl polypropylene plate, 5 μl/well buffer/substrate was added by hand to Blank wells. A Biomek FX was used to start the kinase reaction (“PLK SAR 23 ATP”). The following were added to the appropriate wells: • 2 μl compound+23 μl ATP; • 5 μl/well compound/ATP in Assay Plate; • 5 μl/well kinase/substrate in Assay Plate;
The plate was incubated for 2 hours in the dark. Biomek FX was used to stop the kinase reaction (“PLK Stop”), and 10 μl/well Stop solution was added to the Assay Plate. Results were read on the LabChip 3000.
The LabChip 3000 was run using the job “LRRK2 IC50” with the following job settings: • Pressure: −1.4 psi • Downstream voltage: −500 V • Upstream voltage: −2350 V • Post sample buffer sip time: 75 seconds • Post dye buffer sip time: 75 seconds • Final delay time: 200 seconds Parkinson's Disease Animal Model

Chain of LRRK2 (Q5S007 whole entry G2019S): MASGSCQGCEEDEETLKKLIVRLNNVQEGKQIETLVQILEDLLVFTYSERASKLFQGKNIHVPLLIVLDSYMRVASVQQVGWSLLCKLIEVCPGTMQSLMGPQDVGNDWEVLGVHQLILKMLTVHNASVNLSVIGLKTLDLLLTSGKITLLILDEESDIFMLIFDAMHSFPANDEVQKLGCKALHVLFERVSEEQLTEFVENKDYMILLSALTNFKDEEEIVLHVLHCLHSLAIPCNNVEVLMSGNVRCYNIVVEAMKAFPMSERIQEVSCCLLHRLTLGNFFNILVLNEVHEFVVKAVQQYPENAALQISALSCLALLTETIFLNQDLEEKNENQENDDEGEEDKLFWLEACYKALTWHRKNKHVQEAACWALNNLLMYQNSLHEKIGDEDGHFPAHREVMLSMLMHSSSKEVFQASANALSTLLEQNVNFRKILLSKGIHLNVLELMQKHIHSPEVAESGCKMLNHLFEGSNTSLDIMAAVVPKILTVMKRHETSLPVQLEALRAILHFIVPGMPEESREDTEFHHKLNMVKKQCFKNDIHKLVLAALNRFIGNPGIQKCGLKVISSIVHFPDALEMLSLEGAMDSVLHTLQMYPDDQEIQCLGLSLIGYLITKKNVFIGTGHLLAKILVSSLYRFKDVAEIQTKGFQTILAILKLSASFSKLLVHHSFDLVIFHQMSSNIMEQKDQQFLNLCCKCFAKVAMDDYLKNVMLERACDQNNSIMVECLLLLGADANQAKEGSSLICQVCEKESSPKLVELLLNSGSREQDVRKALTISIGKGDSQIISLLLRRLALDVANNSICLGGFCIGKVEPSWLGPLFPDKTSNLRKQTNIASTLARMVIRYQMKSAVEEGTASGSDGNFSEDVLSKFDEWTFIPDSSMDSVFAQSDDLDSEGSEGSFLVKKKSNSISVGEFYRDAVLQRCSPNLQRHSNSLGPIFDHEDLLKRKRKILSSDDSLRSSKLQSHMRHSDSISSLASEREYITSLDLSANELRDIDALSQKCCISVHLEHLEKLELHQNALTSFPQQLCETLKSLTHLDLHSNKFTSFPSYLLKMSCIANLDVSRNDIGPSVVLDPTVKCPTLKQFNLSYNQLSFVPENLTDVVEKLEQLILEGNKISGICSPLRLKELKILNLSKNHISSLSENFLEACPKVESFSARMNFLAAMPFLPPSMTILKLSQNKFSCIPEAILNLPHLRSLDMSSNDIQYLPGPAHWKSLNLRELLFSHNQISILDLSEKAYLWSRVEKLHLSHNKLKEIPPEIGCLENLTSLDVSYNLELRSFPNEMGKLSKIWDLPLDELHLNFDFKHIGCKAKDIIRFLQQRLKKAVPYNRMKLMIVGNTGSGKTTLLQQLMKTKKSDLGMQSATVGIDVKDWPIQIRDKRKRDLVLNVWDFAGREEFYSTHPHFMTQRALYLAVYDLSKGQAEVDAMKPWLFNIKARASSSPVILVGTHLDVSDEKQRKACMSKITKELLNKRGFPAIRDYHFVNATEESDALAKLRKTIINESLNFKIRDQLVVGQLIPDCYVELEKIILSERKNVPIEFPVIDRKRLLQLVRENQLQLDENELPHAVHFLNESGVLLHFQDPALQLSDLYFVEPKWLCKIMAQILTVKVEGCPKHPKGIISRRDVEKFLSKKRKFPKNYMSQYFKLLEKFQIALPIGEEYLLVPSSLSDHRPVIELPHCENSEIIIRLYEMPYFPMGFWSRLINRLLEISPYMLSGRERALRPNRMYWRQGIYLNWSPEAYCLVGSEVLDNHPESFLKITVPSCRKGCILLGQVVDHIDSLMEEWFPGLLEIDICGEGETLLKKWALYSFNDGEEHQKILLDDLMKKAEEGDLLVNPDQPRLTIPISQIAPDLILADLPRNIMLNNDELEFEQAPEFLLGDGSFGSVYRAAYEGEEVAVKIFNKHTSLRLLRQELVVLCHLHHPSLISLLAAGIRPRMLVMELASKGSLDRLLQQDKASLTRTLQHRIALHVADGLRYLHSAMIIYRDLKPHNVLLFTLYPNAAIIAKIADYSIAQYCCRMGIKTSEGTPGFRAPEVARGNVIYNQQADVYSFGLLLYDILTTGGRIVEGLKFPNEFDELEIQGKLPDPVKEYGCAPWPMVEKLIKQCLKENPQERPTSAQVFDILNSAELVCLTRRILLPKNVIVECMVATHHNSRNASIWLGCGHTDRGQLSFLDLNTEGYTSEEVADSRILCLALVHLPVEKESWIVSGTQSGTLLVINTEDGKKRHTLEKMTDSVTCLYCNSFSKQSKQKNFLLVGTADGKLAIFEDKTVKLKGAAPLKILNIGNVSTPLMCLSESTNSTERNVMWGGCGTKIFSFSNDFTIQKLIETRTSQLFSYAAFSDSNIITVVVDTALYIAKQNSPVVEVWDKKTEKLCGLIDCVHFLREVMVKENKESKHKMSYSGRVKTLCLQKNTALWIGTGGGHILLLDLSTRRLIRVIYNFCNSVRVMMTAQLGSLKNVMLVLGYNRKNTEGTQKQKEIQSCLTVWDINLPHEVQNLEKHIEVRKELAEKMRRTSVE

Row | Structure (SMILES) | Ki [µM]
1 | c1cc2[nH]nc(-c3cnn(C4CCOC4)c3)c2c(OC2CCOCC2)n1 (stereo not shown) [Example 98, 4-(Tetrahydro-2H-pyran-4-yloxy)-3-(1-(tetrahydrofuran-3-yl)-1H-pyrazol-4-yl)-1H-pyrazolo[4,3-c]pyridine] | 0.005
2 | Cc1cc(-c2n[nH]c3ccnc(OC4CCOCC4)c23)cc(C)n1 [Example 100, 3-(2,6-Dimethylpyridin-4-yl)-4-(tetrahydro-2H-pyran-4-yloxy)-1H-pyrazolo[4,3-c]pyridine] | 0.005
3 | COc1cc(-c2n[nH]c3ccnc(OC4CCOCC4)c23)ccn1 [Example 101, 3-(2-Methoxypyridin-4-yl)-4-(tetrahydro-2H-pyran-4-yloxy)-1H-pyrazolo[4,3-c]pyridine] | 0.022
4 | Fc1c(-c2n[nH]c3ccnc(OC4CCOCC4)c23)ccnc1N1CCOCC1 [Example 103, 4-(3-Fluoro-4-(4-(tetrahydro-2H-pyran-4-yloxy)-1H-pyrazolo[4,3-c]pyridin-3-yl)pyridin-2-yl)morpholine] | 0.046
5 | COc1cc(-c2n[nH]c3ccnc(OC)c23)ccn1 [Example 106, 4-Methoxy-3-(2-methoxypyridin-4-yl)-1H-pyrazolo[4,3-c]pyridine] | 0.08
6 | COc1nccc2[nH]nc(-c3ccnc(N4CCOCC4)c3)c12 [Example 107, 4-(4-(4-Methoxy-1H-pyrazolo[4,3-c]pyridin-3-yl)pyridin-2-yl)morpholine] | 0.029
7 | COc1nccc2[nH]nc(-c3ccnc(C(F)(F)F)c3)c12 [Example 108, 4-Methoxy-3-(2-(trifluoromethyl)pyridin-4-yl)-1H-pyrazolo[4,3-c]pyridine] | 0.075
8 | COc1nccc2n[nH]c(-c3ccc(C(=O)N4CCOCC4)c(Cl)c3)c12 [Example 109, (2-Chloro-4-(4-methoxy-1H-pyrazolo[4,3-c]pyridin-3-yl)phenyl)(morpholino)methanone] | 0.209
9 | c1cc(-c2n[nH]c3ccnc(OC4CCOCC4)c23)cc(N2CCCC2)n1 [Example 110, 3-(2-(Pyrrolidin-1-yl)pyridin-4-yl)-4-(tetrahydro-2H-pyran-4-yloxy)-1H-pyrazolo[4,3-c]pyridine] | 0.003
10 | CC1CCCN(c2cc(-c3n[nH]c4ccnc(OC5CCOCC5)c34)ccn2)C1 (stereo not shown) [Example 111, 3-(2-(3-Methylpiperidin-1-yl)pyridin-4-yl)-4-(tetrahydro-2H-pyran-4-yloxy)-1H-pyrazolo[4,3-c]pyridine] | 0.006
11 | c1cc(-c2n[nH]c3ccnc(OC4CCOCC4)c23)cc(NC2COC2)n1 [Example 113, N-(Oxetan-3-yl)-4-(4-(tetrahydro-2H-pyran-4-yloxy)-1H-pyrazolo[4,3-c]pyridin-3-yl)pyridin-2-amine] | 0.136
12 | c1cc(-c2n[nH]c3ccnc(OC4CCOCC4)c23)cc(N2CCC2)n1 [Example 114, 3-(2-(Azetidin-1-yl)pyridin-4-yl)-4-(tetrahydro-2H-pyran-4-yloxy)-1H-pyrazolo[4,3-c]pyridine] | 0.009
13 | Cn1cc(-c2cc(-c3n[nH]c4ccnc(OC5CCOCC5)c34)ccn2)cn1 [Example 116, 3-(2-(1-Methyl-1H-pyrazol-4-yl)pyridin-4-yl)-4-(tetrahydro-2H-pyran-4-yloxy)-1H-pyrazolo[4,3-c]pyridine] | 0.01
14 | COc1nccc2[nH]nc(-c3ccnc(N4[C@@H]5CC[C@H]4COC5)c3)c12 [Example 117, 8-(4-(4-Methoxy-1H-pyrazolo[4,3-c]pyridin-3-yl)pyridin-2-yl)-3-oxa-8-azabicyclo[3.2.1]octane] | 0.08
15 | COc1nccc2[nH]nc(-c3ccnc(N4C[C@@H]5C[C@H]4CO5)c3)c12 [Example 118, (1S,4S)-5-(4-(4-Methoxy-1H-pyrazolo[4,3-c]pyridin-3-yl)pyridin-2-yl)-2-oxa-5-azabicyclo[2.2.1]heptanes] | 0.051
16 | COc1nccc2[nH]nc(-c3ccnc(N4CCCC4)c3)c12 [Example 119, 4-Methoxy-3-(2-(pyrrolidin-1-yl)pyridin-4-yl)-1H-pyrazolo[4,3-c]pyridine] | 0.026
